Measurements reported in patent US12570659B2, “Bicyclic heteroaryl compounds useful as IRAK4 inhibitors” (BRISTOL-MYERS SQUIBB COMPANY, priority 2019, dated 2026).

Legend:
IRAK4 = IRAK4 (Homo sapiens (Human), UniProt Q9NWZ3); experiment: IRAK4 Inhibition Assay; assay type: biochemical; conditions: ATP 500 μM; IRAK4 0.6 nM; 60 min room temperature
How it was run: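 Reaction started by combining IRAK4 with substrates and compound, run 60 min at room temperature and stopped with 35 mM EDTA. Fluorescent substrate and phosphorylated product were separated electrophoretically on a Caliper LabChip; inhibition normalized to no-enzyme (100%) and vehicle-only (0%) controls.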

JAK3 kinase = JAK3 kinase (Homo sapiens (Human), UniProt P52333); experiment: JAK3 Homogeneous Time Resolved Fluorescence (HTRF) Assay; assay type: binding; conditions: for IC50: competition binding with fluorescein-labeled ATP competitive probe; for Ratio of JAK3 IC50 to IRAK4 IC50: selectivity for IRAK4 over JAK3
JAK3 kinase, sequence (P52333 whole entry): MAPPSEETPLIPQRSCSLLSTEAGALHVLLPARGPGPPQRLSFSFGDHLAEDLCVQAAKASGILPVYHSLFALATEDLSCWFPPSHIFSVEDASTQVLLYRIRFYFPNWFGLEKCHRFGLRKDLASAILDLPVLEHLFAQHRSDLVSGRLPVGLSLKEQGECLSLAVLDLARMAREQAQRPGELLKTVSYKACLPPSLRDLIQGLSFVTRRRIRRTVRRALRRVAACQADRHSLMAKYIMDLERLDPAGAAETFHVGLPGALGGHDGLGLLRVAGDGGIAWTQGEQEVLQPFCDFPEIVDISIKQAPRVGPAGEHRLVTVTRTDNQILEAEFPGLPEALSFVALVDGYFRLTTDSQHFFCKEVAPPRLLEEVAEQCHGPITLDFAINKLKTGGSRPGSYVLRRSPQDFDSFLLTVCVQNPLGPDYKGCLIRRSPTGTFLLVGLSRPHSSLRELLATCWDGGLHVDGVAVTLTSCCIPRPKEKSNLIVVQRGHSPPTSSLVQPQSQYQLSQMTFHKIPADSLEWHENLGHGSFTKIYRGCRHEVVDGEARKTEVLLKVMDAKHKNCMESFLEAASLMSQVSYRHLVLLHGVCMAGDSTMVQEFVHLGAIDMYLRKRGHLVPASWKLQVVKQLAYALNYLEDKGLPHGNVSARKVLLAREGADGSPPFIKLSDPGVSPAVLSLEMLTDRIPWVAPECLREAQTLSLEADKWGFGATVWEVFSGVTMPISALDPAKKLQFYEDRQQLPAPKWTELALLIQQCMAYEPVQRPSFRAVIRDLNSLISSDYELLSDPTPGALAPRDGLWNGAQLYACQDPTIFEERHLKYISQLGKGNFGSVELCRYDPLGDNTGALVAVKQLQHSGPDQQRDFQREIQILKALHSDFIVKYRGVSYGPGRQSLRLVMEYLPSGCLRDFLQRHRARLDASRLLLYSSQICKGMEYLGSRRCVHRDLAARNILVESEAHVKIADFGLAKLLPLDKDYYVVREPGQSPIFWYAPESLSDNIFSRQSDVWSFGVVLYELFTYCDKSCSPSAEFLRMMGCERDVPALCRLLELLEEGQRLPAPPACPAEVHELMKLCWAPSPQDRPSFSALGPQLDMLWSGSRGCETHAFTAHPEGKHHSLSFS
How it was run: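 TR-FRET competition binding: 1 nM His- or GST-tagged JAK3 with 0.2 nM Tb-labeled anti-tag antibody, fluorescein ATP-competitive probe at its Kd, and compound for one hour. FRET read at 495/520 nm, normalized to no-compound signal. IC50 from 11 concentrations, 4-parameter logistic fit.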

IRAK4, sequence (Q9NWZ3 whole entry, species assumed): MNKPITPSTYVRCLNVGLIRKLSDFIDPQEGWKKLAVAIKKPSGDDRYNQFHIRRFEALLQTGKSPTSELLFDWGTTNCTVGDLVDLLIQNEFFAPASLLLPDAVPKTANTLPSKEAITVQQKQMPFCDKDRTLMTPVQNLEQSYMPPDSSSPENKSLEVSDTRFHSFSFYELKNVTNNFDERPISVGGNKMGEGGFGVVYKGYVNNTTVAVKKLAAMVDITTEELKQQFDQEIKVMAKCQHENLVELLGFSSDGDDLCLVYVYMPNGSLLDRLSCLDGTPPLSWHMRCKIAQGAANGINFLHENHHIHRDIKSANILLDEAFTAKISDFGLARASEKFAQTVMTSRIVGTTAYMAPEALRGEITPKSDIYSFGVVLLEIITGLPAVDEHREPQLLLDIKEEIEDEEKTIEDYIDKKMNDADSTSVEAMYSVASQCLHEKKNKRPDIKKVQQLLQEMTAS

SMILES | IC50 (IRAK4) | IC50 (JAK3 kinase) | Ratio of JAK3 IC50 to IRAK4 IC50 (JAK3 kinase)
CC(C)Nc1c(C(=O)NC[C@@H](F)C(C)(C)O)cnn2cc(-c3ccncc3)nc12 [Example 100, (R)—N-(2-fluoro-3-hydroxy-3-methylbutyl)-8-(isopropylamino)-2-(pyridin-4-yl)imidazo[1,2-b]pyridazine-7-carboxamide] | 15 nM | > 50000 nM | >3333
CC(C)Nc1c(C(=O)NC[C@@H](F)C(C)(C)O)cnn2cc(-c3ccc(C#N)nc3)nc12 [Example 101, (R)-2-(6-cyanopyridin-3-yl)-N-(2-fluoro-3-hydroxy-3-methylbutyl)-8-(isopropylamino)imidazo[1,2-b]pyridazine-7-carboxamide] | 70 nM | > 50000 nM | >714
CC(C)Nc1c(C(=O)NC[C@@H](F)C(C)(C)O)cnn2cc(-c3cncs3)nc12 [Example 102, (R)—N-(2-fluoro-3-hydroxy-3-methylbutyl)-8-(isopropylamino)-2-(thiazol-5-yl)imidazo[1,2-b]pyridazine-7-carboxamide] | 22 nM | > 50000 nM | >2273
CC(C)Nc1c(C(=O)NC[C@@H](F)C(C)(C)O)cnn2cc(-c3cccnc3F)nc12 [Example 103, (R)—N-(2-fluoro-3-hydroxy-3-methylbutyl)-2-(2-fluoropyridin-3-yl)-8-(isopropylamino)imidazo[1,2-b]pyridazine-7-carboxamide] | 45 nM | > 50000 nM | >1111
CC(C)Nc1c(C(=O)NC[C@@H](F)C(C)(C)O)cnn2cc(-c3ccc(F)cc3)nc12 [Example 104, (R)—N-(2-fluoro-3-hydroxy-3-methylbutyl)-2-(4-fluorophenyl)-8-(isopropylamino)imidazo[1,2-b]pyridazine-7-carboxamide] | 39 nM | > 10000 nM | >256
CC(C)Nc1c(C(=O)NCCC(C)(C)O)cnn2cc(-c3ccncc3)nc12 [Example 105, N-(3-hydroxy-3-methylbutyl)-8-(isopropylamino)-2-(pyridin-4-yl)imidazo[1,2-b]pyridazine-7-carboxamide] | 62 nM | > 50000 nM | >806
CC(C)Nc1c(C(=O)NCCN2CCOCC2)cnn2cc(-c3ccncc3F)nc12 [Example 106, 2-(3-fluoropyridin-4-yl)-8-(isopropylamino)-N-(2-morpholinoethyl)imidazo[1,2-b]pyridazine-7-carboxamide] | 22 nM | > 50000 nM | >2273
CC(C)Nc1c(C(=O)NCCC(C)(C)O)cnn2cc(-c3cn[nH]c3)nc12 [Example 107, N-(3-hydroxy-3-methylbutyl)-8-(isopropylamino)-2-(1H-pyrazol-4-yl)imidazo[1,2-b]pyridazine-7-carboxamide] | 90 nM | > 50000 nM | >556
CC(C)Nc1c(C(=O)NCCN2CCOCC2)cnn2cc(-c3cn[nH]c3)nc12 [Example 110, 8-(isopropylamino)-N-(2-morpholinoethyl)-2-(1H-pyrazol-4-yl) imidazo[1,2-b]pyridazine-7-carboxamide] | 150 nM | > 50000 nM | >333
CC(=O)N1CCC(NC(=O)c2cnn3cc(-c4ccncc4F)nc3c2NC(C)C)CC1 [Example 112, N-(1-acetylpiperidin-4-yl)-2-(3-fluoropyridin-4-yl)-8-(isopropylamino)imidazo[1,2-b]pyridazine-7-carboxamide] | 11 nM | > 10000 nM | >909
Cc1cc(F)ncc1-c1cn2ncc(C(=O)N[C@H]3C[C@H](C(C)(C)O)C3)c(NC(C)C)c2n1 [Example 113, 2-(6-fluoro-4-methylpyridin-3-yl)-N-((1r,3r)-3-(2-hydroxypropan-2-yl)cyclobutyl)-8-(isopropylamino) imidazo[1,2-b]pyridazine-7-carboxamide] | 96 nM | > 50000 nM | >521
CC(C)Nc1c(C(=O)N[C@H]2C[C@H](C(C)(C)O)C2)cnn2cc(-c3ccc(F)nc3)nc12 [Example 114, 2-(6-fluoropyridin-3-yl)-N-((1r,3r)-3-(2-hydroxypropan-2-yl)cyclobutyl)-8-(isopropylamino)imidazo[1,2-b]pyridazine-7-carboxamide] | 840 nM | > 50000 nM | >60
CC(C)Nc1c(C(=O)NC[C@@H](F)C(C)(C)O)cnc2cc(-c3cccnc3)nn12 [Example 115, (R)—N-(2-fluoro-3-hydroxy-3-methylbutyl)-7-(isopropylamino)-2-(pyridin-3-yl) pyrazolo[1,5-a]pyrimidine-6-carboxamide] | 25 nM | > 10000 nM | >400
CC(C)Nc1c(C(=O)NC[C@@H](F)C(C)(C)O)cnc2cc(-c3ccncc3)nn12 [Example 122, (R)—N-(2-fluoro-3-hydroxy-3-methylbutyl)-7-(isopropylamino)-2-(pyridin-4-yl)pyrazolo[1,5-a] pyrimidine-6-carboxamide] | 16 nM | > 10000 nM | >625
CC(C)Nc1c(C(=O)NC[C@@H](F)C(C)(C)O)cnc2cc(-c3ccc(=O)[nH]c3)nn12 [Example 123, (R)—N-(2-fluoro-3-hydroxy-3-methylbutyl)-7-(isopropylamino)-2-(6-oxo-1,6-dihydropyridin-3-yl)pyrazolo[1,5-a]pyrimidine-6-carboxamide] | 4.9 nM | > 50000 nM | >10204
CC(C)Nc1c(C(=O)NC[C@@H](F)C(C)(C)O)cnc2cc(-c3cncc(C#N)c3)nn12 [Example 124, (R)-2-(5-cyanopyridin-3-yl)-N-(2-fluoro-3-hydroxy-3-methylbutyl)-7-(isopropylamino) pyrazolo[1,5-a]pyrimidine-6-carboxamide] | 360 nM | > 50000 nM | >139
CC(C)Nc1c(C(=O)NC[C@@H](F)C(C)(C)O)cnc2cc(-c3cccnc3F)nn12 [Example 125, (R)—N-(2-fluoro-3-hydroxy-3-methylbutyl)-2-(2-fluoropyridin-3-yl)-7-(isopropylamino)pyrazolo[1,5-a] pyrimidine-6-carboxamide] | 48 nM | > 10000 nM | >208
CC(C)Nc1c(C(=O)NC[C@@H](F)C(C)(C)O)cnc2cc(-c3cnn(C)c3)nn12 [Example 126, (R)—N-(2-fluoro-3-hydroxy-3-methylbutyl)-7-(isopropylamino)-2-(1-methyl-1H-pyrazol-4-yl)pyrazolo[1,5-a]pyrimidine-6-carboxamide] | 240 nM | > 50000 nM | >208
CC(C)Nc1c(C(=O)NC[C@@H](F)C(C)(C)O)cnc2cc(-c3cncnc3)nn12 [Example 127, (R)—N-(2-fluoro-3-hydroxy-3-methylbutyl)-7-(isopropylamino)-2-(pyrimidin-5-yl)pyrazolo[1,5-a]pyrimidine-6-carboxamide] | 170 nM | > 10000 nM | >59
